Test system: non-cancer cells
Assay: Toxicity to non-cancer cells
Format: cell-based
Conditions: at the concentration at which dexamethasone is used in the formulation
Description: In the context the present invention stands with complete patentability because the formulation uses our own patented cationic lipid along side a secondary co-lipid dexamethasone, and a common, generic, glucocorticoid. The dexamethasone is not modified at all and is used as such. […] The use of dexamethasone for the targeted gene delivery to cancer is not documented in any of these papers.
Cell-Culture—MCF-7, CHO, A549 cells were purchased from National Center for Cell Sciences (Pune, India) and were mycoplasma free. Cells were cultured in DMEM medium (Sigma Chemical Co., St. Louis, Mo.) containing 10% fetal bovine serum (Sigma Chemical Co., St. Louis, Mo.) and 1% penicillin-streptomycin at […] in a humidified atmosphere of 5% CO2 in air. Cultures of 85-90% confluency were used for all of the experiments. The cells were trypsinized, counted, subcultured in 96-well plates for transfection and viability studies. The cells were allowed to adhere overnight before they were used for experiments.

C[C@@H]1C[C@H]2[C@@H]3CCC4=CC(=O)C=C[C@]4(C)[C@@]3(F)[C@@H](O)C[C@]2(C)[C@@]1(O)C(=O)CO [dexamethasone]
toxicity to non-cancer cells: did not induce any toxicity

Source: patent US9364566B2, “Aqueous formulation for selective targeting and delivering gene to cancer cells” (Council of Scientific and Industrial Research, priority 2006, dated 2016)
